The kinase profiling compilation of Christmann-Franck et al. (2016)

Assays:
Assay in all cases: split-luciferase competition binding
DMPK (human) = DMPK (human) (UniProt Q09013); conditions: compound 10.0 µM
AKT3 (human) = AKT3 (human) (UniProt Q9Y243); conditions: compound 10.0 µM
SGK3 (human) = SGK3 (human) (UniProt Q96BR1); conditions: compound 10.0 µM
PRKCD (human) = PRKCD (human) (UniProt Q05655); conditions: compound 10.0 µM
PRKCI (human) = PRKCI (human) (UniProt P41743); conditions: compound 10.0 µM
PRKCI (human), sequence (P41743 whole entry, looked up): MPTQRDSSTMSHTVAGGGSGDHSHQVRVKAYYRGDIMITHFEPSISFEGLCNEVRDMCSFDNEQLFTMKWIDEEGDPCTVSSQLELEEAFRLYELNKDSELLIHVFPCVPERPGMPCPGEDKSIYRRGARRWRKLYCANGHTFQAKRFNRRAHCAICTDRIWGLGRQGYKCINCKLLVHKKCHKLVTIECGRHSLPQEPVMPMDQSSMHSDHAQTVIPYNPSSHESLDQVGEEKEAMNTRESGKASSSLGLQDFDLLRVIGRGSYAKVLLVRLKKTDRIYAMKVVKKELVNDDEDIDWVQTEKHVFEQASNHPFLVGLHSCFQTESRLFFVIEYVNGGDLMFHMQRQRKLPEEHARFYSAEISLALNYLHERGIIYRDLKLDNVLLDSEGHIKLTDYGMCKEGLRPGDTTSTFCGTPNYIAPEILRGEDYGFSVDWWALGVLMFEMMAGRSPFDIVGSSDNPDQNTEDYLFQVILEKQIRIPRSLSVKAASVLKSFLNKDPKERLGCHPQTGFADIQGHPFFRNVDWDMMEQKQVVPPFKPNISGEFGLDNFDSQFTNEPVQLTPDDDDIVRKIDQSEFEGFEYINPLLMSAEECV

RPS6KA3 KD1 (human) = RPS6KA3 KD1 (human) (UniProt P51812); conditions: compound 10.0 µM
RPS6KA6 KD1 (human) = RPS6KA6 KD1 (human) (UniProt Q9UK32); conditions: compound 10.0 µM
RPS6KA6 KD1 (human), sequence (Q9UK32 whole entry, looked up): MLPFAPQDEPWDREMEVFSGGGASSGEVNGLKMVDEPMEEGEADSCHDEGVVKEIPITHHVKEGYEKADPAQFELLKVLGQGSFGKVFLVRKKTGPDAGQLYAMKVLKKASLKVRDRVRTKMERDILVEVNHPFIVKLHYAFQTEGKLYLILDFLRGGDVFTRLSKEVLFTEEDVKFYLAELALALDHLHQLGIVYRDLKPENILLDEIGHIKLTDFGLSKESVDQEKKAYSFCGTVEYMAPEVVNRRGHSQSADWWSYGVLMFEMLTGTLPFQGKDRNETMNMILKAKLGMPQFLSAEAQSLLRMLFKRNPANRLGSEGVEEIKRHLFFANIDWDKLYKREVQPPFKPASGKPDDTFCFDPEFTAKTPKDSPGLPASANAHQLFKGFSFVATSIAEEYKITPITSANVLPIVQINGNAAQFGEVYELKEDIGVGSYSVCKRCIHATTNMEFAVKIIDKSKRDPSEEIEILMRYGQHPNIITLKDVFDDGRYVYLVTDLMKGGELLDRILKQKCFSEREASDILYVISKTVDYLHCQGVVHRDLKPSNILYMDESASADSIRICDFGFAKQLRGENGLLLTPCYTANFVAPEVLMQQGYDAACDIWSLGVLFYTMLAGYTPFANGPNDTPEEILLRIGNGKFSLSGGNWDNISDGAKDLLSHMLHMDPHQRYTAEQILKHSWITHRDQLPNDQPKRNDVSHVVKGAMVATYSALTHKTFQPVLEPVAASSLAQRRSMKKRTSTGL

PRKACB (human) = PRKACB (human) (UniProt P22694); conditions: compound 10.0 µM
AURKB (human) = AURKB (human) (UniProt Q96GD4); conditions: compound 10.0 µM
PRKCE (human) = PRKCE (human) (UniProt Q02156); conditions: compound 10.0 µM
RPS6KA1 KD1 (human) = RPS6KA1 KD1 (human) (UniProt Q15418); conditions: compound 10.0 µM
RPS6KA2 KD1 (human) = RPS6KA2 KD1 (human) (UniProt Q15349); conditions: compound 10.0 µM
RPS6KA4 KD1 (human) = RPS6KA4 KD1 (human) (UniProt O75676); conditions: compound 10.0 µM
AURKA (human) = AURKA (human) (UniProt O14965); conditions: compound 10.0 µM
AURKA (human), sequence (O14965 whole entry, looked up): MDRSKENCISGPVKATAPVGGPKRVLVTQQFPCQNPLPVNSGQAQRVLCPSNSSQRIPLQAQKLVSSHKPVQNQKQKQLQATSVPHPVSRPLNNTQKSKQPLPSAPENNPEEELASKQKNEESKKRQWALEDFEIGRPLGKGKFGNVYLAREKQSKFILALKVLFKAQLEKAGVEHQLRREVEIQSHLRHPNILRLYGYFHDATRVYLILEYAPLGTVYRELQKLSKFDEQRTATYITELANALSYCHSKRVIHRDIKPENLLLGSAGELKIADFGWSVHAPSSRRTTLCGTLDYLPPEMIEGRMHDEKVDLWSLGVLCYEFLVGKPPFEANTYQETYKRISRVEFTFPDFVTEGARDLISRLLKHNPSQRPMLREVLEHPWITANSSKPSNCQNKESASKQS

SGK2 (human) = SGK2 (human) (UniProt Q9HBY8); conditions: compound 10.0 µM
SGK2 (human), sequence (Q9HBY8 whole entry, looked up): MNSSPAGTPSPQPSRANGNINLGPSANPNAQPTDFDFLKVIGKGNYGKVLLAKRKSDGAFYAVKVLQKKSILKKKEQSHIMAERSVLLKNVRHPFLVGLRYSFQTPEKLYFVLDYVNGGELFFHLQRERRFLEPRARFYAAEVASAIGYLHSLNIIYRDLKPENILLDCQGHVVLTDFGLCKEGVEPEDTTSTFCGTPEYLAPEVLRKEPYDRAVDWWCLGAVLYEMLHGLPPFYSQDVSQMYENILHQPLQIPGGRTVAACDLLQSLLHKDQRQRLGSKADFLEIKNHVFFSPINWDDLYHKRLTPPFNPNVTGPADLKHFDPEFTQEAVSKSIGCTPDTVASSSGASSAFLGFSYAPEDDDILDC

PRKCG (human) = PRKCG (human) (UniProt P05129); conditions: compound 10.0 µM
PRKCQ (human) = PRKCQ (human) (UniProt Q04759); conditions: compound 10.0 µM
PKN1 (human) = PKN1 (human) (UniProt Q16512); conditions: compound 10.0 µM
RPS6KA5 KD1 (human) = RPS6KA5 KD1 (human) (UniProt O75582); conditions: compound 10.0 µM
RPS6KA5 KD1 (human), sequence (O75582 whole entry, looked up): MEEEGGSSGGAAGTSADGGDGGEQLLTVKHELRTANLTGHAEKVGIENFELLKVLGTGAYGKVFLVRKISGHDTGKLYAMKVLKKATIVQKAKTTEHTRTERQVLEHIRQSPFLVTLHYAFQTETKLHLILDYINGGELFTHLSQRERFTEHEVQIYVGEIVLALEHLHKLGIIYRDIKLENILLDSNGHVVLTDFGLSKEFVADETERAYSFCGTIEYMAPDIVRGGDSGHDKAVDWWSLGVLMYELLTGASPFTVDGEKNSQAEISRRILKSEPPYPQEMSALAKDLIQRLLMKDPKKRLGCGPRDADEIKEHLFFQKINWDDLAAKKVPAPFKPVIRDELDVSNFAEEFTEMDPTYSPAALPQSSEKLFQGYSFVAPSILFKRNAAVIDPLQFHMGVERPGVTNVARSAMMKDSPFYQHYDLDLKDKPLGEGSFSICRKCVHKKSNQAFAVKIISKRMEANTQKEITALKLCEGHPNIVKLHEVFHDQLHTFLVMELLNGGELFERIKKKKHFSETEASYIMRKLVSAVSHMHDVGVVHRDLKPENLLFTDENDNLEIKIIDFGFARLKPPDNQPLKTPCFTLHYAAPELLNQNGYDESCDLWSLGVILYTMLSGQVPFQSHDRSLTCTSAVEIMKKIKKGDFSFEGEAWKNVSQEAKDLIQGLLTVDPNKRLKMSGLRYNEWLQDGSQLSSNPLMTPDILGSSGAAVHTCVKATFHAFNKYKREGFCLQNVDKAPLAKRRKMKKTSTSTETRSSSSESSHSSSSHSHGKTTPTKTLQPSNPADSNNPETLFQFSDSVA

AKT2 (human) = AKT2 (human) (UniProt P31751); conditions: compound 10.0 µM
AKT2 (human), sequence (P31751 whole entry, looked up): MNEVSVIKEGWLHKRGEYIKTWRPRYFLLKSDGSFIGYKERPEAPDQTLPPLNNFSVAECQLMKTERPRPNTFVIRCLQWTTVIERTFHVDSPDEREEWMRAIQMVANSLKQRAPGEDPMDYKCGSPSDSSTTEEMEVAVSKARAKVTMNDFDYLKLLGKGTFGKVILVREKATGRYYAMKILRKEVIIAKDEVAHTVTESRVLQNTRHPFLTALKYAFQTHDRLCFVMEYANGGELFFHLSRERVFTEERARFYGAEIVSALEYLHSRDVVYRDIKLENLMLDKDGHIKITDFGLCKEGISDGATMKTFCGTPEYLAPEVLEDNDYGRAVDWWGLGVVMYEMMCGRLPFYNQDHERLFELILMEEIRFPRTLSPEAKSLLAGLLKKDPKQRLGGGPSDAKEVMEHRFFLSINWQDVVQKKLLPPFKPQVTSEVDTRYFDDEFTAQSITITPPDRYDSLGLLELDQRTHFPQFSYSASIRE

AKT1 (human) = AKT1 (human) (UniProt P31749); conditions: compound 10.0 µM
STK32B (human) = STK32B (human) (UniProt Q9NY57); conditions: compound 10.0 µM
PDPK1 (human) = PDPK1 (human) (UniProt O15530); conditions: compound 10.0 µM
PRKX (human) = PRKX (human) (UniProt P51817); conditions: compound 10.0 µM
PRKCH (human) = PRKCH (human) (UniProt P24723); conditions: compound 10.0 µM
PRKCH (human), sequence (P24723 whole entry, looked up): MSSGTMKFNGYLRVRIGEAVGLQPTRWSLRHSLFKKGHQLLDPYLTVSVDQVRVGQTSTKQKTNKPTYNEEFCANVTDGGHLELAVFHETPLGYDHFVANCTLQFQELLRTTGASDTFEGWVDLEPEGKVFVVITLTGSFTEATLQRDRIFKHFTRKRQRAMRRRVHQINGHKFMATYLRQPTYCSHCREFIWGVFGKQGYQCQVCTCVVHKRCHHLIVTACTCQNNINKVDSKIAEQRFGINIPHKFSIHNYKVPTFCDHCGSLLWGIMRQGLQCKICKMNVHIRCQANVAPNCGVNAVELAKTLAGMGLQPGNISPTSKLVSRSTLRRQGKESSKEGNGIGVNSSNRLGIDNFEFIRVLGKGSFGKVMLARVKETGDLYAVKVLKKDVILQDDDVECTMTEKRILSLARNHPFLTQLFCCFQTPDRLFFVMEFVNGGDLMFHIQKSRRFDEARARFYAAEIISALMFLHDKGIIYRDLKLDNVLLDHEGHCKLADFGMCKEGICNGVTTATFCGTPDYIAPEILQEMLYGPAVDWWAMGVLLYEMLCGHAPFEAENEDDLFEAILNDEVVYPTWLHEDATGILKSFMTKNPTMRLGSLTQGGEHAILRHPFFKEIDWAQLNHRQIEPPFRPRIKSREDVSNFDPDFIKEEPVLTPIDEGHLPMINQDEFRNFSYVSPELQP

AURKC (human) = AURKC (human) (UniProt Q9UQB9); conditions: compound 10.0 µM
AURKC (human), sequence (Q9UQB9 whole entry, looked up): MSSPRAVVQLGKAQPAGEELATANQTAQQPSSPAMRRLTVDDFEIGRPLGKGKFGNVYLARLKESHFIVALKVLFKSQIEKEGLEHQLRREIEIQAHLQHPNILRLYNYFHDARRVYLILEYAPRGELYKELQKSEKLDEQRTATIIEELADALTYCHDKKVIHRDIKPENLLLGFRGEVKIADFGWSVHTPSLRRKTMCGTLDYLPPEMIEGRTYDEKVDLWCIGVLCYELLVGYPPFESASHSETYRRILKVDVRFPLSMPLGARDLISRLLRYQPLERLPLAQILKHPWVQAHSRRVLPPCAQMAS

PRKACA (mouse) = conditions: compound 10.0 µM; accession and sequence are those of the human protein

AKT3 (human), sequence (Q9Y243 whole entry, looked up): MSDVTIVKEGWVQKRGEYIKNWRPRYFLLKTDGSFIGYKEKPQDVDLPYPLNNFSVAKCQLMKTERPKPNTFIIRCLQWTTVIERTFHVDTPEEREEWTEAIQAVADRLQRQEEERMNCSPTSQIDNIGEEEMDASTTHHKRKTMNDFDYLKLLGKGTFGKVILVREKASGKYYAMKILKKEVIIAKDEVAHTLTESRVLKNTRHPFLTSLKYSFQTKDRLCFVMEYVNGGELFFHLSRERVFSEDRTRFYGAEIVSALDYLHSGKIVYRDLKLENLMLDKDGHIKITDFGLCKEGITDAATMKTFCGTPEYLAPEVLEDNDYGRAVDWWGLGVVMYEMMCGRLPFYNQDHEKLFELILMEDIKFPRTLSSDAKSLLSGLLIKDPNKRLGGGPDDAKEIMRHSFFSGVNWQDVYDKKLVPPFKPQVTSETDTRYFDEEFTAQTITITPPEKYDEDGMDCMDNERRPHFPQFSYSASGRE

Structure (SMILES)	inhibition (DMPK (human)) [%]	inhibition (AKT3 (human)) [%]	inhibition (SGK3 (human)) [%]	inhibition (PRKCD (human)) [%]	inhibition (PRKCI (human)) [%]	inhibition (RPS6KA3 KD1 (human)) [%]	inhibition (RPS6KA6 KD1 (human)) [%]	inhibition (PRKACB (human)) [%]	inhibition (AURKB (human)) [%]	inhibition (PRKCE (human)) [%]	inhibition (RPS6KA1 KD1 (human)) [%]	inhibition (RPS6KA2 KD1 (human)) [%]	inhibition (RPS6KA4 KD1 (human)) [%]	inhibition (AURKA (human)) [%]	inhibition (SGK2 (human)) [%]	inhibition (PRKCG (human)) [%]	inhibition (PRKCQ (human)) [%]	inhibition (PKN1 (human)) [%]	inhibition (RPS6KA5 KD1 (human)) [%]	inhibition (AKT2 (human)) [%]	further results
Cc1cc(I)ccc1Nc1c(C(=O)NOCC2CC2)cc(F)c(F)c1F	20	0	2	0	0	0	0	0	4	9	6	0	0	0	0	12	1	0	0	0	inhibition (AKT1 (human)): 0%; inhibition (STK32B (human)): 0%; inhibition (PDPK1 (human)): 0%; inhibition (PRKX (human)): 6%; inhibition (PRKCH (human)): 0%; inhibition (AURKC (human)): 0%; inhibition (PRKACA (mouse)): 0%
Cn1cc(C2=C(c3ccc(Cl)cc3Cl)C(=O)NC2=O)c2ccccc21	8	0	0	5	11	0	0	8	0	3	21	1	0	3	0	2	3	0	0	0	inhibition (AKT1 (human)): 3%; inhibition (STK32B (human)): 0%; inhibition (PDPK1 (human)): 0%; inhibition (PRKX (human)): 1%; inhibition (PRKCH (human)): 0%; inhibition (AURKC (human)): 0%; inhibition (PRKACA (mouse)): 5%
NC(=O)c1sc(-c2ccsc2)cc1N	0	0	0	0	0	0	24	2	0	0	0	0	0	0	0	0	0	0	0	0	inhibition (AKT1 (human)): 0%; inhibition (STK32B (human)): 0%; inhibition (PDPK1 (human)): 0%; inhibition (PRKX (human)): 0%; inhibition (PRKCH (human)): 11%; inhibition (AURKC (human)): 0%; inhibition (PRKACA (mouse)): 0%
O=S(=O)(c1cccc2c(O)nccc12)N1CCCNCC1	0	0	0	0	37	0	0	0	14	0	0	0	0	0	0	0	15	6	0	0	inhibition (AKT1 (human)): 0%; inhibition (STK32B (human)): 0%; inhibition (PDPK1 (human)): 0%; inhibition (PRKX (human)): 53%; inhibition (PRKCH (human)): 0%; inhibition (AURKC (human)): 5%; inhibition (PRKACA (mouse)): 19%
CC(C)(C)n1nc(-c2ccc(Cl)cc2)c2c(N)ncnc21	26	0	0	0	0	6	7	8	0	0	7	4	0	0	0	0	0	0	1	0	inhibition (AKT1 (human)): 0%; inhibition (STK32B (human)): 43%; inhibition (PDPK1 (human)): 0%; inhibition (PRKX (human)): 0%; inhibition (PRKCH (human)): 4%; inhibition (AURKC (human)): 6%; inhibition (PRKACA (mouse)): 30%

Further lines, with some results ahead:

inhibition (DMPK (human)) [%]	inhibition (AKT3 (human)) [%]	inhibition (SGK3 (human)) [%]	inhibition (PRKCD (human)) [%]	inhibition (PRKCI (human)) [%]	inhibition (RPS6KA3 KD1 (human)) [%]	inhibition (RPS6KA6 KD1 (human)) [%]	inhibition (PRKACB (human)) [%]	inhibition (AURKB (human)) [%]	inhibition (PRKCE (human)) [%]	inhibition (RPS6KA1 KD1 (human)) [%]	inhibition (RPS6KA2 KD1 (human)) [%]	inhibition (RPS6KA4 KD1 (human)) [%]	inhibition (AURKA (human)) [%]	inhibition (SGK2 (human)) [%]	inhibition (PRKCG (human)) [%]	inhibition (PRKCQ (human)) [%]	inhibition (PKN1 (human)) [%]	inhibition (RPS6KA5 KD1 (human)) [%]	inhibition (AKT2 (human)) [%]	Structure (SMILES)	further results
0	0	0	2	0	0	0	0	0	0	0	0	0	0	0	0	0	0	0	0	N#C/C(=C\c1ccc(O)c(O)c1)C(=O)NCc1ccccc1	inhibition (AKT1 (human)): 0%; inhibition (STK32B (human)): 0%; inhibition (PDPK1 (human)): 0%; inhibition (PRKX (human)): 0%; inhibition (PRKCH (human)): 0%; inhibition (AURKC (human)): 10%; inhibition (PRKACA (mouse)): 3%
0	0	4	1	0	0	0	0	1	0	0	0	0	0	0	0	0	6	0	0	N#C/C(=C(/N)Sc1ccc(N)cc1)c1ccccc1C(F)(F)F	inhibition (AKT1 (human)): 0%; inhibition (STK32B (human)): 0%; inhibition (PDPK1 (human)): 0%; inhibition (PRKX (human)): 11%; inhibition (PRKCH (human)): 0%; inhibition (AURKC (human)): 0%; inhibition (PRKACA (mouse)): 2%
0	0	0	0	0	0	0	0	6	0	0	0	0	0	2	0	0	4	0	0	O=C1c2ccccc2-c2n[nH]c3cccc1c23	inhibition (AKT1 (human)): 0%; inhibition (STK32B (human)): 0%; inhibition (PDPK1 (human)): 0%; inhibition (PRKX (human)): 0%; inhibition (PRKCH (human)): 0%; inhibition (AURKC (human)): 0%; inhibition (PRKACA (mouse)): 0%
0	0	0	0	0	7	37	0	56	19	44	20	16	1	0	0	18	0	0	0	NC(=O)Nc1sc(-c2ccc(F)cc2)cc1C(N)=O	inhibition (AKT1 (human)): 0%; inhibition (STK32B (human)): 0%; inhibition (PDPK1 (human)): 0%; inhibition (PRKX (human)): 9%; inhibition (PRKCH (human)): 56%; inhibition (AURKC (human)): 31%; inhibition (PRKACA (mouse)): 4%
